One test has as its system Fusarium culmorum. Briefly: In vitro test Fusarium culmorum (foot rot of cereals), radial growth on Potato Dextrose Agar. In kind it is cell-based. The following applies: 300 ppm, agar plate, 25° C., seven days. As to the method: Fusarium culmorum (Foot Rot of Cereals):
Compounds were dissolved in 0.3% DMSO and then added to Potato Dextrose Agar medium just prior to dispensing it into petri dishes. 5 mL medium with compound in the desired concentration was dispensed into 60 mm sterile Petri-plates. After solidification each plate was seeded with 5 mm size mycelial disc taken form periphery of actively growing virulent culture plate. Plates were incubated in growth chambers at 25° C. temperature and 60% relative humidity for seven days and radial growth was measured.

In another test the test system is Phakopsora pachyrhizi. Briefly: Greenhouse Phakopsora pachyrhizi test in soybean, preventive. In kind it is in vivo. The following applies: preventive spray on soybean plants, inoculated one day after treatment with Phakopsora pachyrhizi, read-out: control compared to the untreated check. As to the method: Phakopsora pachyrhizi Test in Soybean
Compounds were dissolved in 2% DMSO/Acetone and then mixed with water to the calibrated spray volume of 50 mL and poured into the spray bottles for further applications.
To test the preventive activity of compounds, healthy young soybean plants raised in the greenhouse were sprayed with active compound preparation at the stated application rates inside the spray cabinets using hallowcone nozzles. One day after treatment, the plants were inoculated with spore suspension containing 2.1×10^6 Phakopsora pachyrhizi inoculum. The inoculated plants were then kept in greenhouse chamber at 25° C. temperature and 90% relative humidity for disease expression.
A visual assessment of compound's performance was carried out by rating the disease severity (0-100% scale) on treated plants on 3, 7, 10 and 15 days after application. Efficacy (% control) of the compounds was calculated by comparing the disease rating in the treatment with the one of the untreated control. The sprayed plants were also assessed for compound's plant compatibility by recording symptoms like necrosis, chlorosis and stunting.

Another test concerns Rhizoctonia solani. Briefly: In vitro test Rhizoctonia solani (rice sheath blight/potato black scurf), radial growth on Potato Dextrose Agar. The class given is cell-based. The following applies: 168 h, agar plate, 25° C., seven days, read-out: control compared to the untreated check. As to the method:
Rhizoctonia solani (Rice Sheath Blight/Potato Black Scurf):
Compounds were dissolved in 0.3% DMSO and then added to Potato Dextrose Agar medium just prior to dispensing it into Petri dishes. 5 mL medium with compound in the desired concentration was dispensed into 60 mm sterile Petri-plates. After solidification each plate was seeded with 5 mm size mycelial disc taken form periphery of actively growing virulent culture plate. Plates were incubated in growth chambers at 25° C. temperature and 60% relative humidity for seven days and radial growth was measured.

Another test has as its system Bortytis cinera. In words: Greenhouse Bortytis cinera test in tomato, preventive. The class given is in vivo. The following applies: Solanum lycopersicum, preventive spray on tomato plants, inoculated one day after treatment with Bortytis cinera, read-out: control compared to the untreated check. As to the method:
Bortytis cinera Test in Tomato
Compounds were dissolved in 2% DMSO/Acetone and then mixed with water to calibrated spray volume of 50 mL. This 50 mL spray solution was poured into the spray bottles for further applications.
To test the preventive activity of compounds, healthy young tomato plants raised in the greenhouse were sprayed with active compound preparation at the stated application rates inside the spray cabinets using hallowcone nozzles. One day after treatment, the plants were inoculated with spore suspension (2% Malt) containing 1.2×10^6 Bortytis cinera inoculum. The inoculated plants were then kept in greenhouse chamber at 18-20° C. temperature and 90-100% relative humidity for disease expression.
A visual assessment of compound's performance was carried by rating the disease severity (0-100% scale) on treated plants on 3, 7, 10 and 15 days after application. Efficacy (% control) of the compounds was calculated by comparing the disease rating in the treatment with untreated control. The sprayed plants were also assessed for compound's phytotoxic effects by recording symptoms like necrosis, chlorosis and stunting.

A further test has as its system Alternaria solani. Briefly: In vitro test Alternaria solani (early blight of tomato/potato), radial growth on Potato Dextrose Agar. In kind it is cell-based. The following applies: 168 h, agar plate, 25° C., seven days, read-out: control compared to the untreated check. As to the method:
Alternaria solani (early blight of tomato/potato): Compounds were dissolved in 0.3% DMSO and then added to Potato Dextrose Agar medium just prior to dispensing it into Petri dishes. 5 mL medium with compound in the desired concentration was dispensed into 60 mm sterile Petri-plates. After solidification each plate was seeded with 5 mm size mycelial disc taken form periphery of actively growing virulent culture plate. Plates were incubated in growth chambers at 25° C. temperature and 60% relative humidity for seven days and radial growth was measured.

A further test concerns Pyricularia oryzae. Briefly: microbe, parasite or virus in culture. The following applies: 168 h, read-out: control compared to the untreated check. The class given is cell-based.
Another test deals with Septoria lycopersici. Briefly: In vitro test Septoria lycopersici (leaf spot of tomato), radial growth on Potato Dextrose Agar. The following applies: 168 h, agar plate, 25° C., seven days, read-out: control compared to the untreated check. In kind it is cell-based. As to the method:
Septoria lycopersici (Leaf Spot of Tomato):
Compounds were dissolved in 0.3% DMSO and then added to Potato Dextrose Agar medium just prior to dispensing it into Petri dishes. 5 mL medium with compound in the desired concentration was dispensed into 60 mm sterile Petri-plates. After solidification each plate was seeded with 5 mm size mycelial disc taken form periphery of actively growing virulent culture plate. Plates were incubated in growth chambers at 25° C. temperature and 70% relative humidity for seven days and radial growth was measured.

Molecules are shown by their SMILES. A value given as a limit tells only on which side of the number the result lay.

Turning to `CCN(C)C=Nc1cc(C)c(N=S(C)(=O)c2ccccc2)cc1C` (centres unmarked) [Compound 4], the “control compared to the untreated check” value with Fusarium culmorum stood at 70%.
In the case of `CCN(C)C=Nc1cc(C)c(Oc2cccc(S(=O)(=NC(=O)C(F)(F)F)C(C)C)c2)cc1Cl` (centres unmarked) [Compound 10], in the test on Fusarium culmorum, the “control compared to the untreated check” value is reported as 70%.
On to `CCN(C)C=Nc1cc(C)c(Oc2cccc(S(C)(=O)=NCc3ccccc3)c2)cc1Cl` (centres unmarked) [Compound 21], for which the pest or weed control at 500 ppm with Phakopsora pachyrhizi and in the test with Bortytis cinera was more than 70% throughout. Besides, the inhibition of growth at 300 ppm in the test on Rhizoctonia solani and in the test with Alternaria solani was more than 70% each time.
On to `CCN=S(=O)(CCC(C)C)c1cccc(Oc2cc(Cl)c(N=CN(C)CC)cc2C)c1` (centres unmarked) [Compound 25], for which the inhibition of growth at 300 ppm with Pyricularia oryzae and with Alternaria solani was more than 70% throughout. The “control compared to the untreated check” value in the test with Fusarium culmorum worked out at 70%.
With `CCN(C)C=Nc1cc(C)c(S(=O)(CC)=NC(=O)c2cccc(OC)c2)cc1Cl` (centres unmarked) [Compound 50], the pest or weed control at 500 ppm in the test on Phakopsora pachyrhizi and in the test on Bortytis cinera was more than 70% each time. Moreover, the inhibition of growth at 300 ppm in the test with Rhizoctonia solani and in the test with Alternaria solani was more than 70% each time.
On to `CCN(C)C=Nc1cc(C)c(N=S(C)(=O)c2cccc(OC)c2)cc1C` (centres unmarked) [Compound 74], for which the pest or weed control at 500 ppm in the test on Phakopsora pachyrhizi and with Bortytis cinera was more than 70% each time. Further, the inhibition of growth at 300 ppm in the test on Pyricularia oryzae was more than 70%.
On to `CCN(C)C=Nc1cc(C)c(N=S(=O)(CCC(C)C)c2cccc(OC)c2)cc1C` (centres unmarked) [Compound 76], for which the pest or weed control at 500 ppm in the test with Phakopsora pachyrhizi and with Bortytis cinera was more than 70% each time. Moreover, the inhibition of growth at 300 ppm in the test on Pyricularia oryzae is more than 70%.
Regarding `CCN(C)C=Nc1cc(Br)c(N=S(=O)(CCC(C)C)c2cccc(OC)c2)nc1C` (centres unmarked) [Compound 77], the pest or weed control at 500 ppm in the test on Phakopsora pachyrhizi and in the test on Bortytis cinera was more than 70% each time.
`CCN(C)C=Nc1cc(C)c(S(=O)(CC(C)C)=Nc2cc(C(F)(F)F)cc(C(F)(F)F)c2)cc1Cl` (centres unmarked) [Compound 85]: the pest or weed control at 500 ppm in the test on Phakopsora pachyrhizi and with Bortytis cinera was more than 70% in each case.
Regarding `CCN(C)C=Nc1cc(C)c(S(=O)(CC(C)C)=Nc2ccccc2)cc1Cl` (centres unmarked) [Compound 86], the pest or weed control at 500 ppm in the test on Phakopsora pachyrhizi and with Bortytis cinera was more than 70% each time. The inhibition of growth at 300 ppm in the test on Pyricularia oryzae is more than 70%.
As for `CCN(C)C=Nc1cc(Br)c(N=S(C)(=O)c2cccc(OC)c2)nc1C` (centres unmarked) [Compound 87], the pest or weed control at 500 ppm in the test on Bortytis cinera is more than 70%.
As to `CCN(C)C=Nc1cc(C)c(S(C)(=O)=NCc2cccc(Cl)c2)cc1Cl` (centres unmarked) [Compound 90], the pest or weed control at 500 ppm in the test with Phakopsora pachyrhizi is more than 70%. In addition, the inhibition of growth at 300 ppm with Septoria lycopersici, in the test with Rhizoctonia solani and with Alternaria solani was more than 70% throughout.
As for `CCN(C)C=Nc1cc(C)c(S(C)(=O)=NCc2cccc(OC(F)(F)F)c2)cc1Cl` (centres unmarked) [Compound 92], the inhibition of growth at 300 ppm in the test on Septoria lycopersici, in the test on Rhizoctonia solani and in the test with Alternaria solani was more than 70% each time.
For the compound `CCN(C)C=Nc1cc(C)c(Oc2cccc(S(C)(=O)=NCC(F)(F)F)c2)cc1C` (centres unmarked) [Compound 96], the inhibition of growth at 300 ppm in the test with Septoria lycopersici, with Rhizoctonia solani and in the test with Alternaria solani was more than 70% in each case. Further, the pest or weed control at 500 ppm with Bortytis cinera was more than 70%.
In the case of `CCN(C)C=Nc1cc(C)c(Oc2cccc(S(C)(=O)=Nc3ccccc3)c2)cc1C` (centres unmarked) [Compound 98], the pest or weed control at 500 ppm with Bortytis cinera is more than 70%.
Turning to `CCN(C)C=Nc1cc(C)c(S(=O)(CC(C)C)=Nc2ccc(N3CCOCC3)cc2)cc1Cl` (centres unmarked) [Compound 113], the inhibition of growth at 300 ppm in the test with Septoria lycopersici, in the test with Rhizoctonia solani and in the test with Alternaria solani was more than 70% each time.
For `CCN(C)C=Nc1cc(C)c(S(=O)(CC(C)C)=Nc2ccsc2)cc1Cl` (centres unmarked) [Compound 114], the pest or weed control at 500 ppm in the test with Phakopsora pachyrhizi was more than 70%. The inhibition of growth at 300 ppm in the test on Septoria lycopersici, with Rhizoctonia solani and in the test on Alternaria solani was more than 70% throughout.
In the case of `CCN(C)C=Nc1cc(C)c(S(=O)(CC(C)C)=Nc2ccc(OC)c(OC)c2)cc1Cl` (centres unmarked) [Compound 124], the inhibition of growth at 300 ppm in the test on Septoria lycopersici, in the test on Rhizoctonia solani and with Alternaria solani was more than 70% in each case.
In the case of `CCN(C)C=Nc1cc(C)c(Oc2ccc(S(C)(=O)=NCC3CC3)cc2)cc1Cl` (centres unmarked) [Compound 127], the inhibition of growth at 300 ppm with Pyricularia oryzae and in the test with Alternaria solani was more than 70% in each case. In the test on Bortytis cinera, the pest or weed control at 500 ppm was more than 70%.
For the compound `CCN(C)C=Nc1cc(C)c(Cc2ccc(S(C)(=N)=O)cc2)cc1C` (centres unmarked) [Compound 128], the inhibition of growth at 300 ppm in the test on Pyricularia oryzae and with Alternaria solani was more than 70% each time. Moreover, in the test on Bortytis cinera, the pest or weed control at 500 ppm is more than 70%.
Take `CCN(C)C=Nc1cc(C)c(Oc2ccc(S(C)(=O)=NC(F)(F)F)cc2)cc1Cl` (centres unmarked) [Compound 134]: the inhibition of growth at 300 ppm with Septoria lycopersici, in the test with Rhizoctonia solani and in the test on Alternaria solani was more than 70% each time.
For the compound `CCN=S(C)(=O)c1cccc(Nc2cc(C)c(N=CN(C)CC)cc2C)c1` (centres unmarked) [Compound 140], the inhibition of growth at 300 ppm in the test with Septoria lycopersici, in the test with Rhizoctonia solani and in the test on Alternaria solani was more than 70% in each case. Besides, the “control compared to the untreated check” value in the test on Fusarium culmorum was found to be 70%.
`CCN(C)C=Nc1cc(C)c(Oc2cccc(S(=O)(=NCC3CC3)C(F)(F)F)c2)cc1Cl` (centres unmarked) [Compound 144]: the “control compared to the untreated check” value with Fusarium culmorum was 70%.
The same measure, in the same setting: as for `CCN(C)C=Nc1cc(C)c(Oc2ccccc2S(=N)(=O)C(F)(F)F)cc1Cl` (centres unmarked) [Compound 147], the figure is 70%.
On to `CCN=S(=O)(c1ccccc1Oc1cc(Cl)c(N=CN(C)CC)cc1C)C(F)(F)F` (centres unmarked) [Compound 150], for which, in the test on Phakopsora pachyrhizi, the pest or weed control at 500 ppm is more than 70%. Besides, the inhibition of growth at 300 ppm in the test with Rhizoctonia solani and in the test with Alternaria solani was more than 70% each time. Also, the “control compared to the untreated check” value with Fusarium culmorum is 70%.

Source of the values: US20200148635A1 (priority 2017, published 2020).
